{"source": "patent US6406720B1", "about": "“Cosmetic containing plant extracts” (Laboratoires Serobiologiques (Societe Anonyme), priority 1997, dated 2002)", "test_system": "tyrosinase", "assay": "anti-tyrosinase action (oxidation of L-DOPA to DOPACHROME, Mason's method)", "format": "biochemical", "conditions": "concentration which halves the initial speed of DOPACROME formation", "experimental": "To determine the de-pigmenting power of the extracts, their tyrosinase action was evaluated by measuring the product of oxidising L-DOPA to DOPACHROME (by HS Mason's method, 1948), carrying out the following stages: […]\nmixing tyrosinase with L-DOPA in the phosphate buffer with an automatic pipette recording the optical density at 475 nm for 2 minutes, then calculating the initial speed of the enzyme reaction and determining the C150 (concentration which halves the initial speed of DOPACROME formation).", "data": [{"smiles": "Oc1ccc(O)cc1", "note": "[Hydroquinone]", "values": [{"measurement": "C150 anti-tyrosinase effect in %", "result": 0.025, "unit": "%"}]}]}
